# Results published in patent US20260232767A1, “INTERLEUKIN-23 RECEPTOR ANTAGONIST PEPTIDES FOR USE IN THE TREATMENT OF PSORIASIS” (Janssen Pharmaceutica NV, priority 2023, published 2026).
# What was measured:
# [1] = tested on: subjects with moderate-to-severe plaque psoriasis; experiment: BSA, Example 1; type: in vivo, human; conditions: each dose group vs placebo; Week 16
# From the text: Subjects suitable for the method of the present invention satisfy one or more criteria for inclusion, as described below. In some embodiments, the present invention relates to the method and/or use, where the subject has a psoriasis effected Body Surface Area (BSA) of at least 10% before the start of treatment. Herein the term BSA will mean the measure of the percentage of total area of your body affected by psoriasis.
# Clinician-reported outcomes including Psoriasis Area and Severity Index (PASI), Body Surface Area (BSA), Investigator's Global Assessment (IGA), Nail Psoriasis Area and Severity Index (NAPSI), Fingernail Physician's Global Assessment (f-PGA), Static Physician's Global Assessment of Genitalia (s-PGA-G), Physician's Global Assessment of Hands and/or Feet (hf-PGA), and Scalp Specific Investigator Global Assessment (ss-IGA) were obtained at Week 0, 8, and 16. PASI and IGA were also obtained at Weeks 1, 2, 4, and 12, and at Week 20, four weeks after the administration of the tablets has stopped.
# [2] = tested on: subjects with moderate-to-severe plaque psoriasis; experiment: PSSD symptom and sign scores, Example 2; type: in vivo, human
# From the text: Secondary endpoints included additional change from baseline of Example 1 in PASI, IGA, and PSSD at Week 52, including the proportions of subjects that achieved PAST 90, PAST 100, an IGA score of cleared (0) or minimal (1), PSSD symptoms score=0, and PSSD signs score=0.
structure (smiles),measurement,setting,value
"CC(=O)NCCCC[C@@H]1NC(=O)[C@H](Cc2c[nH]c3c(C)cccc23)NC(=O)[C@H]([C@@H](C)O)NC(=O)[C@H](CC(N)=O)NC(=O)[C@@H](NC(C)=O)C(C)(C)SSC(C)(C)[C@@H](C(=O)N[C@@H](Cc2ccc(OCCN)cc2)C(=O)N[C@@H](Cc2ccc3ccccc3c2)C(=O)NC2(C(=O)N[C@@H](CCC(=O)O)C(=O)N[C@@H](CC(N)=O)C(=O)N[C@@H](Cc3cccnc3)C(=O)N(C)CC(N)=O)CCOCC2)NC1=O [IL-23 receptor antagonist peptide, Ac-[Pen]*-N-T-[W(7-Me)]-[Lys(Ac)]-[Pen]*-Phe[4-(2-aminoethoxy)]-[2-Nal]-[THP]-E-N-[3-Pal]-Sarc-NH2 (*[Pen]-[Pen]* formdisulfidebond)]",Improvement (reduction) in BSA from baseline,[1],significantly greater improvement
same,Subjects Achieving PSSD Sign Score 0 at Week 52,"[2]; 50 mg QD, Subjects w/Baseline PSSD Sign Score ≥1 (Table 26, second block)",5 (11.6%)
same,Subjects achieving PSSD Sign Score = 0 at Week 52,"[2]; 100 mg QD, subjects with Baseline PSSD Sign Score ≥1",6 (14.0%)
